Data: patent publication US8273769B2, “Phenoxy acetic acid derivatives” (Merck Serono SA, priority 2009, dated 2012)

Target: T1, CRTH2 (Homo sapiens, UniProt Q9Y5Y4)
T1 sequence (Q9Y5Y4 1-395): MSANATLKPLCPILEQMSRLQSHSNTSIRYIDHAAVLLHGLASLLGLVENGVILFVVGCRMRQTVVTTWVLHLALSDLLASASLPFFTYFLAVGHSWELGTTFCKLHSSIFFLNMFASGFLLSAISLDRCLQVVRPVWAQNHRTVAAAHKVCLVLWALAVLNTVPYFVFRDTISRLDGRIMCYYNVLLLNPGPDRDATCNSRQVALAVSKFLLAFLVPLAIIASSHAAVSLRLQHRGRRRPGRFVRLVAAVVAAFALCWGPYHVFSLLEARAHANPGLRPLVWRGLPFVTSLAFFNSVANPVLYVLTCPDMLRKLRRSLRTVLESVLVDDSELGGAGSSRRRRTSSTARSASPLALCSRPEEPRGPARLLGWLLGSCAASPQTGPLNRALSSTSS
Assay: Radioligand binding Scintillation Proximity Assay ([3H]PGD2, hCRTH2-CHO cell membranes)
Parameters: host or cells: CHO cells
Conditions: 1.5 nM [3H]PGD2, hCRTH2-CHO cell membranes, SPA
Description: Adherent CHO cells expressing hCRTH2 (Euroscreen, Belgium) were cultured in 225 cm^2 cell culture flasks (Corning, USA) in 30 ml of medium. After two rinses of phosphate buffered saline (PBS), cells were harvested in 10 ml of PBS containing 1 mM EDTA, centrifuged at 500×g for 5 min at 4° C. and frozen at −80° C. The pellet was re-suspended in 50 mM Tris-HCl, pH 7.4, 2 mM EDTA, 250 mM Sucrose, containing protease inhibitor cocktail tablets, (Complete EDTA-free, Roche, Germany) and incubated 30 min at 4° C. Cells were disrupted by nitrogen cavitation (Parr Instruments, USA) at 4° C. (800 p.s.i. for 30 min), and centrifuged at 500×g for 10 min at 4° C. Pellet containing nuclei and cellular debris was discarded and supernatant was centrifuged 60 min at 4° C. at 45000×g. Membrane pellet was re-suspended in storage buffer (10 mM HEPES/KOH pH 7.4, 1 mM EDTA, 250 mM sucrose, protease inhibitor cocktail tablets) using Dounce homogenization and frozen in liquid nitrogen, and stored at −80° C.
The inhibitory activity can be investigated by a radioligand binding Scintillation Proximity Assay (SPA) (Sawyer et al., Br. J. Pharmocol 2002, 137, 1163-72). The SPA radioligand binding assay was performed at room temperature in binding buffer (10 mM HEPES/KOH pH 7.4, 10 mM MnCl2, with protease inhibitor cocktail tablets), containing 1.5 nM [^3H]PGD2 (Perkin Elmer), 10-50 μg/ml of hCRTH2-CHO cell membrane protein and 2 mg/ml of Wheat-germ agglutinin Sintillation Proximity Assay beads (RPNQ0001, GE-Healthcare) in a final volume of 100 μl in 96 well plates (Corning, USA). Non-specific binding was determined in the presence of 10 μM PGD2 (Cayman, USA). Competing Compounds of Formula (I) were diluted in dimethylsulphoxide so that the total volume of dimethylsulfoxide was kept constant at 1% dimethylsulphoxide (Me2SO). Serial dilutions of 100 μM to 100 pM were prepared and 10 μl each of the compounds of Formula (I) stock solutions were added to the binding assay reagents and incubated for 90 min with agitation at room temperature. Binding activity was determined by using a 1450 Micro-beta scintillation counter (Wallac, UK).

Row | IC50 [nM] | Structure (SMILES)
1 | 27 | Cc1ccc(S(=O)(=O)N2CCN(C)CC2)cc1C#Cc1cc(Cl)ccc1OCC(=O)O [Example 112, [4-chloro-2-({2-methyl-5-[(4-methylpiperazin-1-yl)sulfonyl]phenyl}ethynyl)phenoxy]acetic acid]
2 | 2 | Cc1ccc(S(=O)(=O)NCC(C)(C)C)cc1C#Cc1cc(Cl)ccc1OCC(=O)O [Example 113, {4-chloro-2-[(5-{[(2,2-dimethylpropyl)amino]sulfonyl}-2-methylphenyl)ethynyl]phenoxy}acetic acid]
3 | 3 | CCC(C)NS(=O)(=O)c1ccc(C)c(C#Cc2cc(Cl)ccc2OCC(=O)O)c1 (centres unmarked) [Example 114, [2-({5-[(sec-butylamino)sulfonyl]-2-methylphenyl}ethynyl)-4-chlorophenoxy]acetic acid]
4 | 5 | CCCN(C)S(=O)(=O)c1ccc(C)c(C#Cc2cc(Cl)ccc2OCC(=O)O)c1 [Example 115, {4-chloro-2-[(2-methyl-5-{[methyl(propyl)amino]sulfonyl}phenyl)ethynyl]phenoxy}acetic acid]
5 | 8 | CCCN(CCC)S(=O)(=O)c1ccc(C)c(C#Cc2cc(Cl)ccc2OCC(=O)O)c1 [Example 116, [4-chloro-2-({5-[(dipropylamino)sulfonyl]-2-methylphenyl}ethynyl)phenoxy]acetic acid]
6 | 4 | CCCNS(=O)(=O)c1ccc(C)c(C#Cc2cc(Cl)ccc2OCC(=O)O)c1 [Example 118, [4-chloro-2-({2-methyl-5-[(propylamino)sulfonyl]phenyl}ethynyl)phenoxy]acetic acid]
7 | 369 | Cc1ccc(S(=O)(=O)N(C)CCCN(C)C)cc1C#Cc1cc(Cl)ccc1OCC(=O)O [Example 119, {4-chloro-2-[(5-{[[3-(dimethylamino)propyl](methyl)amino]sulfonyl}-2-methylphenyl)ethynyl]phenoxy}acetic acid]
8 | 25 | Cc1ccc(S(N)(=O)=O)cc1C#Cc1cc(Cl)ccc1OCC(=O)O [Example 120, (2-{[5-(aminosulfonyl)-2-methylphenyl]ethynyl}-4-chlorophenoxy)acetic acid]
9 | 8 | Cc1ccc(S(=O)(=O)N(C)C2CCCC2)cc1C#Cc1cc(Cl)ccc1OCC(=O)O [Example 121, {4-chloro-2-[(5-{[cyclopentyl(methyl)amino]sulfonyl}-2-methylphenyl)ethynyl]phenoxy}acetic acid]
10 | 452 | Cc1ccc(S(=O)(=O)N(C)CCN(C)C)cc1C#Cc1cc(Cl)ccc1OCC(=O)O [Example 122, {4-chloro-2-[(5-{[[2-(dimethylamino)ethyl](methyl)amino]sulfonyl}-2-methylphenyl)ethynyl]phenoxy}acetic acid]
11 | 5 | Cc1ccc(S(=O)(=O)N2CCC2)cc1C#Cc1cc(Cl)ccc1OCC(=O)O [Example 123, (2-{[5-(azetidin-1-ylsulfonyl)-2-methylphenyl]ethynyl}-4-chlorophenoxy)acetic acid]
12 | 106 | O=C(O)COc1ccc(Cl)cc1C#Cc1ccc(C(=O)N2CCOCC2)cc1 [Example 124, (4-chloro-2-{[4-(morpholin-4-ylcarbonyl)phenyl]ethynyl}phenoxy)acetic acid]
13 | 57 | CN(C)C(=O)c1ccc(C#Cc2cc(Cl)ccc2OCC(=O)O)cc1 [Example 125, [4-chloro-2-({4-[(dimethylamino)carbonyl]phenyl}ethynyl)phenoxy]acetic acid]
14 | 60 | O=C(O)COc1ccc(Cl)cc1C#Cc1cccc(C(=O)N2CCOCC2)c1 [Example 126, (4-chloro-2-{[3-(morpholin-4-ylcarbonyl)phenyl]ethynyl}phenoxy)acetic acid]
15 | 68 | CN(C)C(=O)c1cccc(C#Cc2cc(Cl)ccc2OCC(=O)O)c1 [Example 127, [4-chloro-2-({3-[(dimethylamino)carbonyl]phenyl}ethynyl)phenoxy]acetic acid]
16 | 63 | CCCS(=O)(=O)c1cccc(C#Cc2cc(Cl)cnc2OCC(=O)O)c1 [Example 128, [(5-chloro-3-{[3-(propylsulfonyl)phenyl]ethynyl}pyridin-2-yl)oxy]acetic acid]
17 | 10 | CCCS(=O)(=O)c1ccc(F)c(C#Cc2cc(Cl)cnc2OCC(=O)O)c1 [Example 129, [(5-chloro-3-{[2-fluoro-5-(propylsulfonyl)phenyl]ethynyl}pyridin-2-yl)oxy]acetic acid]
18 | 9 | O=C(O)COc1ccc(Cl)cc1C#Cc1cc(S(=O)(=O)C(F)(F)F)ccc1Cl [Example 130, [4-chloro-2-({2-chloro-5-[(trifluoromethyl)sulfonyl]phenyl}ethynyl)phenoxy]acetic acid]
19 | 68 | CCCS(=O)(=O)c1cccc(C#Cc2cc(-c3sc(C)nc3C)ccc2OCC(=O)O)c1 [Example 132, (4-(2,4-dimethyl-1,3-thiazol-5-yl)-2-{[3-(propylsulfonyl)phenyl]ethynyl}phenoxy)acetic acid]
20 | 23 | CCCS(=O)(=O)c1cccc(C#Cc2cc(-c3ccsc3)ccc2OCC(=O)O)c1 [Example 133, [2-{[3-(propylsulfonyl)phenyl]ethynyl}-4-(3-thienyl)phenoxy]acetic acid]
21 | 15 | CCCS(=O)(=O)c1cccc(C#Cc2cc(-c3cccs3)ccc2OCC(=O)O)c1 [Example 134, [2-{[3-(propylsulfonyl)phenyl]ethynyl}-4-(2-thienyl)phenoxy]acetic acid]
22 | 530 | CCCS(=O)(=O)c1cccc(C#Cc2cc(-c3cnn(C)c3)ccc2OCC(=O)O)c1 [Example 135, (4-(1-methyl-1H-pyrazol-4-yl)-2-{[3-(propylsulfonyl)phenyl]ethynyl}phenoxy)acetic acid]
23 | 360 | CCCS(=O)(=O)c1cccc(C#Cc2cc(-c3c(C)nn(C)c3C)ccc2OCC(=O)O)c1 [Example 136, [2-{[3-(Propylsulfonyl)phenyl]ethynyl}-4-(1,3,5-trimethyl-1H-pyrazol-4-yl)phenoxy]acetic acid]
24 | 70 | Cc1ccc(NS(C)(=O)=O)cc1C#Cc1cc(Cl)ccc1OCC(=O)O [Example 137, [4-chloro-2-({2-methyl-5-[(methylsulfonyl)amino]phenyl}ethynyl)phenoxy]acetic acid]
25 | 150 | Cc1ccc(N(C)S(C)(=O)=O)cc1C#Cc1cc(Cl)ccc1OCC(=O)O [Example 138, [4-chloro-2-({2-methyl-5-[methyl(methylsulfonyl)amino]phenyl}ethynyl)phenoxy]acetic acid]
26 | 51 | Cc1ncc(S(=O)(=O)N(C)C)cc1C#Cc1cc(Cl)ccc1OCC(=O)O [Example 139, [4-chloro-2-({5-[(dimethylamino)sulfonyl]-2-methylpyridin-3-yl}ethynyl)phenoxy]acetic acid]
27 | 8 | COc1ccc(-c2ccc(C#Cc3cc(Cl)ccc3OCC(=O)O)cc2S(C)(=O)=O)cc1 [Example 141, (4-chloro-2-{[4′-methoxy-2-(methylsulfonyl)biphenyl-4-yl]ethynyl}phenoxy)acetic acid]
28 | 9 | COc1cccc(-c2ccc(C#Cc3cc(Cl)ccc3OCC(=O)O)cc2S(C)(=O)=O)c1 [Example 142]
29 | 50 | CS(=O)(=O)c1cc(C#Cc2cc(Cl)ccc2OCC(=O)O)ccc1-c1ccc(C(F)(F)F)cc1 [Example 143, (4-chloro-2-{[2-(methylsulfonyl)-4′-(trifluoromethyl)biphenyl-4-yl]ethynyl}phenoxy)acetic acid]
